US6187585A, “Oligonucleotide inhibition of epidermal growth factor receptor expression” (Isis Pharmaceuticals, Inc., priority 1999, dated 2001)
Strand notation (5' to 3'): a small letter for the sugar, then the base; units joined by * are phosphorothioate-linked, units joined directly phosphodiester-linked; [ ] holds rarer units or linkages, { } end groups; capitals alone tell only the bases. d = 2'-deoxy (DNA)

Experiments:
A431 cells = details: cited from earlier work
EGFR tyrosine kinase = details: cited from earlier work
EGFR mRNA [1] = assay: EGFR mRNA inhibition, Northern blot, A549 human lung carcinoma cells; type: cell-based; details: for % Inhibition of EGFR mRNA (10 kb band): 300 nM oligonucleotide, 15 μg/ml LIPOFECTIN, relative to untreated control, normalized to G3PDH
EGFR mRNA [2] = assay: EGFR mRNA inhibition, Northern blot, SKOV3 human ovarian carcinoma cells; type: cell-based; details: for % Inhibition of EGFR mRNA (10 kb band): 300 nM oligonucleotide, 15 μg/ml LIPOFECTIN, relative to untreated control, normalized to β-actin
EGFR mRNA [3] = assay: EGFR mRNA, Northern blot, both cell types together (A549 and SKOV3); type: cell-based, human; details: 300 nM
Procedure: SKOV3 and A549 cells were grown in T-75 flasks until 65-75% confluent. The cells were washed once with serum-free OPTI-MEM® medium (Life Technologies, Inc., Grand Island, N.Y.) and 5 ml of the serum-free OPTI-MEM® containing 15 μg/ml of LIPOFECTIN® reagent (a 1:1 liposome formulation of the cationic lipid DOTMA and DOPE, Life Technologies, Inc.) was added. At that time, 300 nM of oligonucleotide was added and swirled vigorously. After a 4-5 hour incubation at 37° C., the solution was removed and fresh maintenance medium containing 10% fetal bovine serum was added. The cells were again incubated overnight at 37° in 5% CO2, after which the cells were assayed for EGFR MRNA expression or cell growth.
Total mRNA was extracted from the cells. For SKOV3 cells, cells were washed twice with PBS and 1-2 ml of RNAZOL B® (Tel-Test, Inc., Friendswood Tex.) was added. An incubation at 4° C. for 5-30 minutes was done and the cells were scraped into an Eppendorf tube. This solution was frozen at -80° C. for 20 minutes, thawed and chloroform (200 μl/ml) was added. The solution was centrifuged at 12,000×g for 15 minutes at 4° C. and the aqueous layer was transferred to a clean Eppendorf tube. An equal volume of isopropanol was added and incubated at room temperature for 15 minutes. Another centrifugation at 12,000×g for 15 minutes at 4° C. was done. The pellet was washed with 500 μl of 75% ethanol and centrifuged at 7500×g for 5 minutes at 4° C. As much of the supernatant as possible was removed and the pellet was resuspended in 30 μl of double distilled water. For A549 cells, total mRNA was extracted using a guanidinium/cesium chloride extraction protocol as described by Dean et al., J. Biol. Chem., 1994, 269, 16416. Ten μg of this mRNA was resolved on a 1.0% agarose gel containing 3.0% formaldehyde and transferred to a nylon membrane. […] The membrane was exposed to autoradiography film at -80° C. and the MRNA bands quantitated using a densitometer (Molecular Dynamics). Blots were stripped of radioactivity by boiling and then reprobed with a ^32 P-labeled control probe which hybridized either to G3PDH (Clontech Laboratories, Inc., Palo Alto Calif.) or β-actin (Ambion, Austin Tex.).
Some of the oligonucleotides in Table 1 were tested for their ability to inhibit EGFR mRNA expression in A549 human lung carcinoma cells and SKOV3 human ovarian carcinoma cells, both of which overexpress the EGFR. […] Total RNA was extracted and quantitated by Northern blot analysis, using PCR-generated EGFR cDNA probes. Bands were quantitated on a densitometer and normalized to control probe bands (G3PDH for the A549 cells and β-actin for the SKOV3 cells). […]

EGFR protein = EGFR protein synthesis, metabolic labeling and immunoprecipitation, SKOV3 cells; type: cell-based, human; details: 35S-methionine labeling, compared to untreated cells
Procedure: Human SKOV3 ovarian carcinoma cells were obtained from the American Type Culture Collection. They were grown in McCoy's 5A medium containing NaHCO3, 10% fetal bovine serum and antibiotics and routinely passaged. A549 human lung carcinoma cells were routinely passaged in DMEM medium supplemented with 10% fetal bovine serum.
SKOV3 cells were treated with the indicated oligonucleotides in serum-free, methionine-free OPTI-MEM® medium for 2.5 hours. The medium was then replaced with methionine-free OPTI-MEM® containing ^35 S-methionine (100 μCi/ml) and 2% dialyzed fetal bovine serum for 10 hours. Cell extracts were prepared as described by Kumar et al., Proc. Natl. Acad. Sci. USA, 1992, 89, 6599. Aliquots containing equal amounts of trichloroacetic acid-precipitable counts per minute were subjected to immunoprecipitation with anti-EGFR monoclonal antibody 528/rabbit anti-mouse IgG/protein A-Sepharose conjugate. Kumar et al., Proc. Natl. Acad. Sci. USA, 1992, 89, 6599 and Korutla et al., Carcinogenesis, 1995, 16, 1741. Lysates containing equal amounts of protein were also resolved on a 10% SDS-polyacrylamide gel and stained with Coomassie blue.
ISIS 10563, ISIS 12876 and ISIS 12877 were added to exponentially growing SKOV3 cells. Cells were metabolically labeled with ^35 S-methionine and newly synthesized EGFR protein was immunoprecipitated. […] Coomassie blue staining confirmed that proteins other than EGFR were not affected by treatment of cells with antisense oligonucleotides.

[4] = 300 nM, scrambled control, 10 kb band

COc1cc2ncnc(Nc3cccc(Br)c3)c2cc1OC [PD153035]
inhibition of the growth of A431 cells in nude mice (A431 cells): can inhibit the growth of A431 cells in nude mice | inhibition of EGFR tyrosine kinase activity (EGFR tyrosine kinase): inhibits EGFR tyrosine kinase activity

ISIS 12877: CUCGGCTGACATTCCGGCAA; 2'-fluoro; phosphorothioate (all phosphorothioate, sugars by position and methylation of C not given here; 2'-fluoro modification, further chemistry not fully specified)
% Inhibition of EGFR mRNA (10 kb band) (EGFR mRNA [1]): 93% | % Inhibition of EGFR mRNA (10 kb band) (EGFR mRNA [2]): 61% | reduction of EGFR mRNA expression, ranking in words (EGFR mRNA [3]): greatest amount of reduction of EGFR mRNA expression in both cell types | reduction of EGFR protein production / EGFR synthesis (EGFR protein): 90-98%

ISIS 12139: GAGTTCGCGTCCTTTCTCCA; scrambled control; phosphorothioate (all phosphorothioate, sugars by position and methylation of C not given here) [reference compound]
increase in EGFR mRNA compared to untreated controls (EGFR mRNA [1]; [4]): 18% | increase in EGFR mRNA compared to untreated controls (EGFR mRNA [2]; [4]): 39% | reduction of EGFR protein production / EGFR synthesis (EGFR protein): 10%

ISIS 10563: CCCCAGCAGCTCCCATTGGG; phosphorothioate deoxyoligonucleotide; coding region, Ullrich 769-788 (antisense dC*dC*dC*dC*dA*dG*dC*dA*dG*dC*dT*dC*dC*dC*dA*dT*dT*dG*dG*dG)
% Inhibition of EGFR mRNA (10 kb band) (EGFR mRNA [1]): 95% | % Inhibition of EGFR mRNA (10 kb band) (EGFR mRNA [2]): 61% | reduction of EGFR mRNA expression, ranking in words (EGFR mRNA [3]): greatest amount of reduction of EGFR mRNA expression in both cell types | reduction of EGFR protein production / EGFR synthesis (EGFR protein): 90-98%

ISIS 12876: CCCCAGCAGCTCCCATTGGG; 5-methyl C; phosphorothioate; coding region, Ullrich 769-788 (all C 5-methyl, all phosphorothioate, sugars by position not given here)
% Inhibition of EGFR mRNA (10 kb band) (EGFR mRNA [1]): 97% | % Inhibition of EGFR mRNA (10 kb band) (EGFR mRNA [2]): 66% | reduction of EGFR mRNA expression, ranking in words (EGFR mRNA [3]): greatest amount of reduction of EGFR mRNA expression in both cell types | reduction of EGFR protein production / EGFR synthesis (EGFR protein): 90-98%

ISIS 12878: GAGGCGTTCTCCTUUCUCCA; 2'-O-propyl; phosphorothioate; coding region, Ullrich 2966-2985 (all phosphorothioate, sugars by position and methylation of C not given here; 2'-O-propyl modification, further chemistry not fully specified)
% Inhibition of EGFR mRNA (10 kb band) (EGFR mRNA [1]): greater than 50% | % Inhibition of EGFR mRNA (10 kb band) (EGFR mRNA [1]; listed as 12878): 66% | % Inhibition of EGFR mRNA (10 kb band) (EGFR mRNA [2]): 22%

ISIS 10565: CTCGGCTGACATTCCGGCAA; phosphorothioate 2'-deoxy; coding region, Ullrich 1761-1780 (antisense dC*dT*dC*dG*dG*dC*dT*dG*dA*dC*dA*dT*dT*dC*dC*dG*dG*dC*dA*dA)
% Inhibition of EGFR mRNA (10 kb band) (EGFR mRNA [1]): 43% | % Inhibition of EGFR mRNA (10 kb band) (EGFR mRNA [2]): 33%

ISIS 10561: TGTCGGCCCCACAGGCTCGG; phosphorothioate 2'-deoxy; coding region, Ullrich 1110-1129 (antisense dT*dG*dT*dC*dG*dG*dC*dC*dC*dC*dA*dC*dA*dG*dG*dC*dT*dC*dG*dG)
% Inhibition of EGFR mRNA (10 kb band) (EGFR mRNA [1]): greater than 50% | % Inhibition of EGFR mRNA (10 kb band) (EGFR mRNA [1]; listed as 10561): 75% | % Inhibition of EGFR mRNA (10 kb band) (EGFR mRNA [2]): 45%

ISIS 12875: CCCCAGCAGCTCCCAUUGGG; 2'-fluoro; phosphorothioate; coding region, Ullrich 769-788 (all phosphorothioate, sugars by position and methylation of C not given here; 2'-fluoro modification, further chemistry not fully specified)
% Inhibition of EGFR mRNA (10 kb band) (EGFR mRNA [1]): 77% | % Inhibition of EGFR mRNA (10 kb band) (EGFR mRNA [2]): 57% | reduction of EGFR mRNA expression, ranking in words (EGFR mRNA [3]): slightly less potent
